# Measured values: ChEMBL document CHEMBL3988181, “GlaxoSmithKline Published Kinase Inhibitor Set 2 Onchocerca lienalis Screening Data”
# Values joined by “and” are separate entries in the source; they are usually repeats but may differ in a detail not shown here. Identical values can stand only once.
# Assay: GSK PKIS2: Screen against O. lienalis microfilariae, single point, at 3.1uM to assess reduction in motility. Compounds were also tested for cytotoxicity against Rhesus Monkey LLCMK2 cells.
# Assay type: functional, Onchocerca lienalis, LLC-MK2
# Details: CELL_LINE LLCMK2, CELL_SUPPLIER ECACC, CONC 3.1 uM, ORGANISM_SUPPLIER Extracted from peri-umbilical skin obtained from naturally infected cattle in the UK, temperature 37 degree C
SMILES,MOTILITY REDUCTION/CYTOTOXICITY [%],MOTILITY REDUCTION/CYTOTOXICITY (3.1 µM)
O=c1cc(N2CCOCC2)nc2n(Cc3cccc(Cl)c3Cl)ccn12,80,
COc1cc2ncn(-c3cc(OCCCc4ccccc4)c(C(N)=O)s3)c2cc1OC,33.4,
COc1ccc(C2=C(Nc3cccc(Cl)c3)C(=O)NC2=O)cc1,0,
Cc1c(Cn2c3ccccc3n3c(=O)cc(N4CCOCC4)nc23)cccc1C(F)(F)F,0,
CN1CCN(CCNc2nc3ccc(Oc4ccc(NC(=O)Nc5cc(C(F)(F)F)ccc5F)cc4)cc3[nH]2)CC1,0,
Fc1ccc(-c2ncn(C3CCNCC3)c2-c2ccnc(Nc3ccccc3)n2)cc1,0,
O=c1[nH]ccc2nc(N[C@@H]3CCCNC3)nc(Nc3ccc(S(=O)(=O)N4CCOCC4)cc3)c12,46.7,
Clc1cccc(-c2nc(Nc3ccncc3)c3ccccc3n2)c1,0,
O=C(Nc1n[nH]c2nc(-c3ccccc3O)ccc12)C1CC1,0,
Fc1ccc(-c2nn3c(OCC(F)(F)F)cccc3c2-c2ccncc2)cc1,13.4,
COc1ccc(Nc2ncc(C#N)c(Nc3ccccc3C(N)=O)n2)cc1N1CCN(C)CC1,13.4,
CCNCC(Cc1ccccc1)NC(=O)c1cc(Br)c(-c2ccnc3[nH]ccc23)s1 (stereo unspecified),0,
CCn1c(-c2c(N)noc2C)nc2cnccc21,0,
COC(=O)Nc1nc2ccc(Oc3ccc(NC(=O)Nc4cc(C(F)(F)F)ccc4F)cc3)cc2n1C,0,
CCCC(=O)Nc1n[nH]c2ncc(-c3cccc4ccccc34)cc12,0,
CC(C)NCC(Cc1ccccc1)NC(=O)c1cc(Br)c(-c2ccnc3[nH]ccc23)s1 (stereo unspecified),66.7,
NC(=O)Nc1sc(-c2ccc(F)cc2)cc1C(N)=O,33.4,
Nc1ncnc2c1ncn2-c1cccc2ccccc12,0,
Nc1nc(N)c2[nH]c(-c3ccccc3)nc2n1,20,
CN(C)CCOc1ccc(-c2cc(-c3c[nH]nc3-c3ccccn3)ccn2)cc1,0,
COc1cc2nccc(Nc3cccc(Oc4ccccc4)c3)c2cc1OC,0,

SMILES,MOTILITY REDUCTION/CYTOTOXICITY [%],MOTILITY REDUCTION/CYTOTOXICITY (3.1 µM)
COc1cccc(CNC(=O)NC2CCN(c3ccnc(Nc4ccc(F)cc4)n3)C2)c1 (stereo unspecified),33.4,
C[C@@H]1CCCCN1c1cc(-c2ccc3c(N)n[nH]c3c2)nc(N)n1,13.4,
O=C(Nc1cccc(-c2nn3ncccc3c2-c2ccnc(Nc3cccnc3)n2)c1)c1c(F)cccc1F,0,
CN1C(=O)C(Nc2ccccc2)=C(c2ccccc2)C1=O,13.4,
O=C1NC(=O)C(c2ccccc2)=C1Nc1cc(Cl)c(O)c(Cl)c1,0,
NC[C@H](Cc1ccc(C(F)(F)F)cc1)NC(=O)c1cc(Br)c(-c2ccnc3[nH]ccc23)s1,0,
COC(=O)c1cccc(NC(=O)NC2CCN(c3ccnc(Nc4ccc(OC)cc4)n3)C2)c1 (stereo unspecified),66.7,
Clc1cc(Cl)cc(Nc2ccnc(Nc3cc(Cl)cc(Cl)c3)n2)c1,86.7,
Cc1nnc(-c2ccc(C)c(-c3ccc(C(=O)Nc4ccc(NS(C)(=O)=O)cc4)cc3)c2)o1,0,
CC(C)(C)c1ccc(-n2cnc3c(N)ncnc32)cc1,0,
Cc1ccc(C)c(Oc2nccc(-c3c(-c4ccc(F)cc4)ncn3C3CCNCC3)n2)c1,26.7,
c1ccc(Oc2ccc(Nc3ccnc4cc(-c5ccc(CNCCN6CCOCC6)o5)ccc34)cc2)nc1,0,
CC(C)c1nc(-c2ccc(F)c(NS(=O)(=O)c3c(F)cccc3F)c2)c(-c2ccnc(Nc3ccc(N4CCOCC4)nc3)n2)s1,0,
NS(=O)(=O)c1cccc(-c2ccc3ncc(N4CCOCC4)nc3c2)c1,0,
Cc1cccc2c(-c3ccncc3)c(-c3ccc(F)cc3)nn12,46.7,
c1ccc(Cn2ncc3cc(Nc4ncnc5ccccc45)ccc32)cc1,0,
O=C(NCCNc1ccnc(Nc2ccc(F)cc2)n1)Nc1ccc2c(c1)OCO2,0,
Nc1ncnc2c1nc(-c1ccccc1)n2-c1ccccc1,0,
c1ccc(-c2ccnc3[nH]ccc23)cc1,33.4,
CCCCc1nn2ncccc2c1-c1ccnc(Nc2ccc(N3CCN(C)CC3)cc2)n1,13.4,
Nc1ncc(-c2ccc3nccc(-c4ccncc4)c3c2)cc1S(=O)(=O)N1CCCCC1,33.4,

SMILES,MOTILITY REDUCTION/CYTOTOXICITY [%],MOTILITY REDUCTION/CYTOTOXICITY (3.1 µM)
Cc1c(Cn2ccn3c(=O)cc(N4CCOCC4)nc23)cccc1C(F)(F)F,0,
O=C(c1ccc(-c2cc(-c3c[nH]nc3-c3ccccn3)ccn2)cc1)N1CCOCC1,0,
COc1cc2nccc(Nc3ccc(OCc4ccc(NC(C)=O)cc4)cc3)c2cc1OC,0,
Cc1cccc(Nc2nc(N[C@H]3CCCC[C@H]3N)ncc2C(N)=O)c1,40,
CSc1nn2c(=O)cc(N3CCOCC3)nc2n1Cc1cccc(C(F)(F)F)c1C,,16.7% and 0%
CC1=C(C(=O)Nc2cc3cn[nH]c3cc2F)C(c2ccc(C(F)(F)F)cc2)CC(=O)N1 (stereo unspecified),0,
O=C(Nc1n[nH]c2nc(-c3cccs3)c(Br)cc12)C1CCCC1,0,
Cc1csc(-c2nc(Nc3ccncc3)c3ccccc3n2)n1,33.4,
Cc1cn2c(=O)cc(N3CCOCC3)nc2n1Cc1cccc(Cl)c1Cl,0,
CN1CCN(CCCNc2nccc(-c3c(-c4ccc(F)cc4)nn4cc(C(N)=O)ccc34)n2)CC1,13.4,
Cc1cccc(-c2nc(Nc3ccc4nn[nH]c4c3)c3ccccc3n2)n1,20,
COc1cccc(CC(=O)N2CCc3cc(-c4cn(C)c5ncnc(N)c45)ccc32)c1,0,
CNc1nccc(-c2c(-c3ccc(F)cc3)ncn2C2CCN(C)CC2)n1,13.4,
CSc1ccc(NC2=C(c3ccc(Cl)cc3)C(=O)NC2=O)cc1,0,
CNC(=O)c1ccccc1Nc1nc(Nc2ccc(N3CCOCC3)cc2)ncc1Cl,80,
Cc1ccc(NC(=O)Nc2cc(C(C)(C)C)nn2-c2ccccc2)cc1,0,
COC(=O)C(Cc1ccccc1)NC(=O)NC1CCN(c2ccnc(Nc3ccc(F)cc3)n2)C1 (stereo unspecified),13.4,
CNc1cc(-c2ccc3c(N)n[nH]c3c2)nc(N)n1,0,
O=C(NCCCN1CCOCC1)c1cccc(Nc2nccc(Nc3ccc(Oc4ccccc4)cc3)n2)c1,13.4,
COc1cc(Nc2ncc3c(C)nc(-c4cc5ccccc5[nH]4)n3n2)cc(OC)c1OC,53.4,
CCn1c(-c2ccoc2)nc2cnccc21,0,

SMILES,MOTILITY REDUCTION/CYTOTOXICITY [%],MOTILITY REDUCTION/CYTOTOXICITY (3.1 µM)
COc1ccc(CNC(=O)NC2CCN(c3ccnc(Nc4cc(OC)c(OC)c(OC)c4)n3)C2)cc1 (stereo unspecified),0,
COc1cccc(-c2[nH]c(-c3ccccc3)nc2-c2ccncc2)c1,33.4,
O=C(O)c1ccc(-c2nc(-c3ccc(F)cc3)c(-c3ccncc3)[nH]2)cc1,0,
CC(C(=O)NC1CCN(c2ccnc(Nc3ccc(F)cc3)n2)C1)c1ccc(Cl)cc1 (stereo unspecified),33.4,
Cc1cccc(-c2nc(Nc3ccncc3)c3sccc3n2)n1,46.7,
COc1cccc(C2=C(Nc3cccc(C(=O)O)c3)C(=O)NC2=O)c1,0,
Cc1c(Cn2c(C)c(C)n3c(=O)cc(N4CCOCC4)nc23)cccc1C(F)(F)F,0,
COc1ccc(Nc2nccc(N3CCC(NC(=O)Nc4cccc(OC)c4)C3)n2)cc1 (stereo unspecified),0,
Fc1ccc(-c2nc3n(c2-c2ccncc2)CCS3)cc1,13.4,
Cn1cncc1-c1ccc2ncnc(Nc3ccc(OCc4ccccc4)cc3)c2c1,0,
CN(C(=O)c1ccc(-c2cc(-c3c[nH]nc3-c3ccccn3)ccn2)cc1)C1CCOCC1,0,
Cc1ccc2c(-c3ccncc3)c(-c3ccc(F)cc3)nn2c1,0,
CN1CCN(Cc2cccc(-c3ccc4c(Nc5ccc(Oc6ccccc6)cc5)ccnc4c3)c2)CC1,100,
O=C(Nc1n[nH]c2nc(-c3ccc(O)cc3)ccc12)C1CC1,33.4,
O=C1NC(=O)C(c2ccc(Cl)cc2)=C1Nc1cccc(C(=O)O)c1,0,
c1ccc(-c2n[nH]cc2-c2ccnc3ccccc23)nc1,0,
Cc1c(Cn2ccn3c(=O)nc(N4CCOCC4)cc23)cccc1C(F)(F)F,0,
CCn1c(-c2cccnc2O)nc2cnccc21,13.4,
